In paper PMC2134300 (The Journal of Cell Biology, 1997):
Residues, ends and D or L forms follow the SMILES beside them. *: point of attachment. Cbz = O=C(OCc1ccccc1)*; CH2Cl = ClC*; CH2F = FC*

What follows are compounds tested against T1, T. cruzi oligopeptidase B (rPEP, recombinant 120-kD peptidase) (Trypanosoma cruzi, UniProt Q94795) (assay: fluorimetric inhibition of Z-Phe-Arg-AMC hydrolysis).
T1 sequence (Q94795 1-714): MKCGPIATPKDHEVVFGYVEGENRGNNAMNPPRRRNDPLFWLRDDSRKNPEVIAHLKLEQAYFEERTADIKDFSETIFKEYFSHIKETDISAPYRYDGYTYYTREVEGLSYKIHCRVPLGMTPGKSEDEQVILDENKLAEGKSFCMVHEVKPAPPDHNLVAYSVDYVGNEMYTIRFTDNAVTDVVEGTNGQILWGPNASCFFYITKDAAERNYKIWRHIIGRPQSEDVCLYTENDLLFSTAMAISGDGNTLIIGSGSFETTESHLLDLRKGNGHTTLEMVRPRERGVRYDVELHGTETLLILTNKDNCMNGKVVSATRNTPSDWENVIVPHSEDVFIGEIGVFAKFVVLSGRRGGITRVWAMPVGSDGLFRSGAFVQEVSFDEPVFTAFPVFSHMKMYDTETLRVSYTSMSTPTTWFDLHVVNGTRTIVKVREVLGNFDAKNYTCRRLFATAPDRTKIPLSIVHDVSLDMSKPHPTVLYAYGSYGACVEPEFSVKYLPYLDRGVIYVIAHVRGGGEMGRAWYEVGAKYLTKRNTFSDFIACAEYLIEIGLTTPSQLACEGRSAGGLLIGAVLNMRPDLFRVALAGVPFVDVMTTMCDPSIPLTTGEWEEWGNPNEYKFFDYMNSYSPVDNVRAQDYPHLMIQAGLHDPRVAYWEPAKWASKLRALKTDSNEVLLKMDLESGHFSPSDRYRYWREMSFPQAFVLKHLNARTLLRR
Type: biochemical

`N=C(N)NCCC[C@H](NC(=O)[C@H](Cc1ccccc1)NC(=O)OCc1ccccc1)C(=O)CF` [Z-Phe-Arg-fluoromethylketone] (Cbz-Phe-Arg-CH2F) and `CC(=O)N[C@@H](CCCNC(=N)N)C(=O)N[C@@H](CCCNC(=N)N)C(=O)CCl` [acetylArg-Arg-chloromethylketone] (Ac-Arg-Arg-CH2Cl) are within 1.5-fold of each other in IC50: 250 nM for the first, 200 nM for the second.

Compared with `Cc1ccc(S(=O)(=O)N[C@@H](CCCCN)C(=O)CCl)cc1` [N-α-p-tosyl-l-lysine-chloromethyl ketone], `O=C(O)c1cc[c]([Hg][Cl])cc1` [p-chloromercuribenzoic acid] is 1.8-fold lower in IC50: 600 nM for the first, 330 nM for the second.
